The values that follow are results of earlier work, collected in patent US8442776B2, “Structure of compstatin-C3 complex and use for rational drug design” (The Trustees of the University of Pennsylvania, priority 2007, dated 2013).

By pIC50 is commonly meant the negative decadic logarithm of the IC50, by convention in mol/L.

For series [1], the system named is complement system (C3 activation). To be noted: read-out: inhibitory activity IC50.

pIC50: −log10 of the molar value.

`CC[C@H](C)[C@H](N)C(=O)N[C@H]1CSSC[C@@H](C(=O)N[C@H](C(N)=O)[C@@H](C)O)NC(=O)[C@H](CCCN=C(N)N)NC(=O)[C@H](Cc2cnc[nH]2)NC(=O)[C@H](Cc2cnc[nH]2)NC(=O)CNC(=O)[C@H](Cc2c[nH]c3ccccc23)NC(=O)[C@H](CC(=O)O)NC(=O)[C@H](CCC(N)=O)NC(=O)[C@H](C(C)C)NC(=O)[C@H](C(C)C)NC1=O` [Compstatin]: in series [1], the negative logarithm of the IC50 (pIC50) was 4.92. The “binding to primate C3” value in the series with primate C3 is “binds only to primate C3”.
